Counter-ions that a name gives are not always drawn.
biological target: T1, Human Factor D (Homo sapiens, UniProt P00746); test: Human Factor D Assay; format: biochemical; conditions: Human Factor D 80 nM, substrate Z-L-Lys-SBzl; Table 2; read-out: IC50 (Stars)
T1 construct: purified from human serum; purchased Complement Technology, Inc; host or cells: human serum (natural protein, not recombinant)
Experimental: Human Factor D (purified from human serum, Complement Technology, Inc.) at 80 nM final concentration is incubated with test compound at various concentrations for 5 min at room temperature in 50 mM Tris, 1M NaCl, pH 7.5. A synthetic substrate Z-L-Lys-SBzl and DTNB (Ellman's reagent) are added to final concentrations of 100 μM each. […] IC50 values are calculated by nonlinear regression of complement Factor D reaction rates as a function of test compound concentration.

T1 sequence (P00746 26-253): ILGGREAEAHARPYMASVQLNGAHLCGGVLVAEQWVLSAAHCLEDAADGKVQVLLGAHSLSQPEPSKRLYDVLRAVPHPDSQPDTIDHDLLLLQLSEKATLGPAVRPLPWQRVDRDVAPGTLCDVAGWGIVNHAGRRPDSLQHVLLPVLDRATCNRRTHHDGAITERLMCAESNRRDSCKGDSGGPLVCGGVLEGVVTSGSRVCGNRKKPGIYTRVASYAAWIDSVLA

**Q.** For CC(=O)c1nn(CC(=O)N2[C@H](C(=O)Nc3nc(Br)c(F)cc3C)C[C@@]3(C)C[C@@H]23)c2c(C)cc(-c3cnc(C(=O)O)nc3)cc12 [Compound 45, 5-(3-acetyl-1-(2-((1R,3S,5R)-3-((6-bromo-5-fluoro-3-methylpyridin-2-yl)carbamoyl)-5-methyl-2-azabicyclo[3.1.0]hexan-2-yl)-2-oxoethyl)-7-methyl-1H-indazol-5-yl)pyrimidine-2-carboxylic acid], which IC50 is on record?
**A.** < 1 µM

**Q.** For COC(=O)c1ncc(-c2ccc3c(c2)c(C(C)=O)nn3CC(=O)N2[C@H](C(=O)Nc3nc(Br)ccc3C)C[C@@]3(C)C[C@@H]23)cn1 [Compound 46, methyl 5-(3-acetyl-1-(2-((1R,3S,5R)-3-((6-bromo-3-methylpyridin-2-yl)carbamoyl)-5-methyl-2-azabicyclo[3.1.0]hexan-2-yl)-2-oxoethyl)-1H-indazol-5-yl)pyrimidine-2-carboxylate], which IC50 is on record?
**A.** < 1 µM

**Q.** Which IC50 does the source give for CC(=O)c1nn(CC(=O)N2[C@H](C(=O)Nc3nc(Br)ccc3C)C[C@@]3(C)C[C@@H]23)c2ccc(-c3cnc(C(=O)O)nc3)cc12 [Compound 47, 5-(3-acetyl-1-(2-((1R,3S,5R)-3-((6-bromo-3-methylpyridin-2-yl)carbamoyl)-5-methyl-2-azabicyclo[3.1.0]hexan-2-yl)-2-oxoethyl)-1H-indazol-5-yl)pyrimidine-2-carboxylic acid] here?
**A.** < 1 µM

**Q.** CC(=O)c1nn(CC(=O)N2[C@H](C(=O)Nc3cncc(Br)n3)C[C@@]3(C)C[C@@H]23)c2c(C)cc(-c3cnc(CO)nc3)cc12 [Compound 48, (1R,3S,5R)-2-(2-(3-acetyl-5-(2-(hydroxymethyl)pyrimidin-5-yl)-7-methyl-11H-indazol-1-yl)acetyl)-N-(6-bromopyrazin-2-yl)-5-methyl-2-azabicyclo[3.1.0]hexane-3-carboxamide] was tested. Which IC50 did it give?
**A.** < 1 µM

**Q.** With CC(=O)c1nn(CC(=O)N2[C@H](C(=O)Nc3nc(Br)c(F)cc3C)C[C@@]3(C)C[C@@H]23)c2c(C)cc(-c3cnc(CO)nc3)cc12 [Compound 49, (1R,3S,5R)-2-(2-(3-acetyl-5-(2-(hydroxymethyl)pyrimidin-5-yl)-7-methyl-1H-indazol-1-yl)acetyl)-N-(6-bromo-5-fluoro-3-methylpyridin-2-yl)-5-methyl-2-azabicyclo[3.1.0]hexane-3-carboxamide] as the compound, how does the IC50 read?
**A.** < 1 µM

**Q.** Which IC50 does the source give for COC(=O)c1ncc(-c2cc(C)c3c(c2)c(C(C)=O)nn3CC(=O)N2[C@H](C(=O)Nc3nc(C(F)(F)F)ccc3C)C[C@@]3(C)C[C@@H]23)cn1 [Compound 50, Methyl 5-(3-acetyl-7-methyl-1-(2-((1R,3S,5R)-5-methyl-3-((3-methyl-6-(trifluoromethyl)pyridin-2-yl)carbamoyl)-2-azabicyclo[3.1.0]hexan-2-yl)-2-oxoethyl)-1H-indazol-5-yl)pyrimidine-2-carboxylate] here?
**A.** < 1 µM

**Q.** Which IC50 does the source give for CC(=O)c1nn(CC(=O)N2[C@H](C(=O)Nc3nc(C(F)(F)F)ccc3C)C[C@@]3(C)C[C@@H]23)c2c(C)cc(-c3cnc(C(=O)O)nc3)cc12 [Compound 51, 5-(3-acetyl-7-methyl-1-(2-((1R,3S,5R)-5-methyl-3-((3-methyl-6-(trifluoromethyl)pyridin-2-yl)carbamoyl)-2-azabicyclo[3.1.0]hexan-2-yl)-2-oxoethyl)-1H-indazol-5-yl)pyrimidine-2-carboxylic acid] here?
**A.** < 1 µM

**Q.** With COc1ncc(-c2cc(C)c3c(c2)c(C(C)=O)nn3CC(=O)N2[C@H](C(=O)Nc3nc(Br)ccc3C)C[C@@]3(C)C[C@@H]23)cn1 [Compound 52, (1R,3S,5R)-2-(2-(3-acetyl-5-(2-methoxypyrimidin-5-yl)-7-methyl-1H-indazol-1-yl)acetyl)-N-(6-bromo-3-methylpyridin-2-yl)-5-methyl-2-azabicyclo[3.1.0]hexane-3-carboxamide] as the compound, how does the IC50 read?
**A.** < 1 µM

**Q.** For CC(=O)c1nn(CC(=O)N2[C@H](C(=O)Nc3nc(Br)ccc3C)C[C@@]3(C)C[C@@H]23)c2c(C)cc(-c3cnc(C(N)=O)nc3)cc12 [Compound 53, (1R,3S,5R)-2-(2-(3-acetyl-5-(2-carbamoylpyrimidin-5-yl)-7-methyl-1H-indazol-1-yl)acetyl)-N-(6-bromo-3-methylpyridin-2-yl)-5-methyl-2-azabicyclo[3.1.0]hexane-3-carboxamide], which IC50 is on record?
**A.** < 1 µM

**Q.** For CC(=O)c1nn(CC(=O)N2[C@H](C(=O)Nc3nc(C(F)(F)F)ccc3C)C[C@@]3(C)C[C@@H]23)c2c(C)cc(-c3cnc(CO)nc3)cc12 [Compound 54, (1R,3S,5R)-2-(2-(3-acetyl-5-(2-(hydroxymethyl)pyrimidin-5-yl)-7-methyl-1H-indazol-1-yl)acetyl)-5-methyl-N-(3-methyl-6-(trifluoromethyl)pyridin-2-yl)-2-azabicyclo[3.1.0]hexane-3-carboxamide], which IC50 is on record?
**A.** < 1 µM

**Q.** CC(=O)c1nn(CC(=O)N2[C@H](C(=O)Nc3nc(OC(F)(F)F)ccc3C)C[C@@]3(C)C[C@@H]23)c2c(C)cc(-c3cnc(CO)nc3)cc12 [Compound 55, (1R,3S,5R)-2-(2-(3-acetyl-5-(2-(hydroxymethyl)pyrimidin-5-yl)-7-methyl-1H-indazol-1-yl)acetyl)-5-methyl-N-(3-methyl-6-(trifluoromethoxy)pyridin-2-yl)-2-azabicyclo[3.1.0]hexane-3-carboxamide] was tested. Which IC50 did it give?
**A.** < 1 µM

**Q.** CC(=O)c1nn(CC(=O)N2C[C@@H](C(C)(C)N)C[C@H]2C(=O)Nc2nc(C(F)(F)F)ccc2C)c2c(C)cc(-c3cnc(C)nc3)cc12 [Compound 56, (2S,4S)-1-(2-(3-acetyl-7-methyl-5-(2-methylpyrimidin-5-yl)-1H-indazol-1-yl)acetyl)-4-(2-aminopropan-2-yl)-N-(3-methyl-6-(trifluoromethyl)pyridin-2-yl)pyrrolidine-2-carboxamide hydrochloride] was tested. Which IC50 did it give?
**A.** < 1 µM

**Q.** CC(=O)c1nn(CC(=O)N2[C@H](C(=O)Nc3nc(Br)ccc3C)C[C@@]3(C)C[C@@H]23)c2c(C)cc(-c3cnc(C#N)nc3)cc12 [Compound 57, (1R,3S,5R)-2-(2-(3-acetyl-5-(2-cyanopyrimidin-5-yl)-7-methyl-1H-indazol-1-yl)acetyl)-N-(6-bromo-3-methylpyridin-2-yl)-5-methyl-2-azabicyclo[3.1.0]hexane-3-carboxamide] was tested. Which IC50 did it give?
**A.** < 1 µM

**Q.** Which IC50 does the source give for CC(=O)c1ncc(-c2cc(C)c3c(c2)c(C(C)=O)nn3CC(=O)N2[C@H](C(=O)Nc3nc(Br)ccc3C)C[C@@]3(C)C[C@@H]23)cn1 [Compound 58] here?
**A.** < 1 µM

**Q.** How did the IC50 turn out when CC(=O)c1nn(CC(=O)N2[C@H](C(=O)Nc3nc(Br)ccc3C)C[C@@]3(C)C[C@@H]23)c2c(C)cc(-c3cnc(F)nc3)cc12 [Compound 59, (1R,3S,5R)-2-(2-(3-acetyl-5-(2-fluoropyrimidin-5-yl)-7-methyl-1H-indazol-1-yl)acetyl)-N-(6-bromo-3-methylpyridin-2-yl)-5-methyl-2-azabicyclo[3.1.0]hexane-3-carboxamide] was run?
**A.** < 1 µM

**Q.** Which IC50 does the source give for COCc1ncc(-c2cc(C)c3c(c2)c(C(C)=O)nn3CC(=O)N2[C@H](C(=O)Nc3nc(Br)ccc3C)C[C@@]3(C)C[C@@H]23)cn1 [Compound 60, (1R,3S,5R)-2-(2-(3-acetyl-5-(2-(methoxymethyl)pyrimidin-5-yl)-7-methyl-11H-indazol-1-yl)acetyl)-N-(6-bromo-3-methylpyridin-2-yl)-5-methyl-2-azabicyclo[3.1.0]hexane-3-carboxamide] here?
**A.** < 1 µM

— patent US20230022157A1 (Achillion Pharmaceuticals, Inc., priority 2018, published 2023)
